Earlier results on one compound are cited in paper PMC12010937, “Evaluation of FXR Activity in Pollutants Identified in Sewage Sludge and Subsequent in Vitro and in Vivo Characterization of Metabolic Effects of Triphenyl Phosphate” (Environmental Health Perspectives, 2025).

The data set concerns PPARγ. Also noted: method as in PMID 34340181. Conditions: in vitro assays and in silico molecular docking; cited from earlier work.

Turning to `O=P(Oc1ccccc1)(Oc1ccccc1)Oc1ccccc1` [TPHP, triphenyl phosphate], the “PPARγ activity reported (in words)” value is “agonists”.
